The series is described as follows: Thickening / thixotropy of aqueous mixtures. Type of series: physicochemical. The following applies: standard test formulation. How it is done: “thixotropic” or “thixotropically” means, with reference to a thickened composition, when applied to a vertical surface, it will cling until disturbed by wiping or massaging in biomechanical cleansing.
The sodium dodecylbenzene sulfonate base employed in Examples 34-46 was prepared as follows: 90.07% (Wt.) of deionized water was placed in the blender beaker and 1.104% sodium hydroxide pellets added and the mixture stirred until all sodium hydroxide dissolved. 8.826% of dodecylbenzene sulfonic acid (98% purity) was added slowly with good stirring until all the dodecylbenzene sulfonic acid dissolved (reacted with the sodium hydroxide). The pH of the resulting solution was […]. The final solution contained 9.42% sodium dodecylbenzene sulfonate. Approximately 450 gms of the base, containing 408 gms of water and 42.4 gms of the sodium dodecylbenzene sulfonate, were used in all the examples of TABLE VI. 124 gms of aluminum oxide grit (A2-325 and P-6 grades from Altmatis) were employed in the compositions of TABLE VI.
The alkyl alcohol ethoxylates were added slowly with good mixing employing a Silverson L4RT-A laboratory mixer with the pump head mixer. As the mixture thickened, addition of the alkyl alcohol ethoxylates was slowed until the thickened mixture had the consistency of whipped cream. If the desired thickening was achieved, it was so noted as “YES”, if not, it was noted as “NO”.

sodium alkyl(C11-16) sulfonate: the “formation of stable thickened compositions” value is listed as “did not result in stable thickened compositions”.
The same measure for `CCCCCCCCCCCCc1ccc(S(=O)(=O)[O-])cc1.[Na+]` [sodium docecylbenzene sulfonate]: “did form stable thickened compositions”.
For the compound `CCCCCCCCS(=O)(=O)[O-].[Na+]` [sodium octane sulfonate], the “formation of stable thickened compositions” value is on record as “did not result in stable thickened compositions”.
For `CCCCCCCCCCCCS(=O)(=O)[O-].[Na+]` [sodium lauryl (C12) sulfonate] the value was “did not result in stable thickened compositions”.

These data come from patent publication US20070227557A1, “THICKENED SURFACTANT-FREE CLEANSING AND MULTIFUNCTIONAL LIQUID COATING COMPOSITIONS CONTAINING NONREACTIVE ABRASIVE SOLID PARTICLES AND AN ORGANOSILANE QUATERNARY COMPOUND AND METHODS OF USING” (priority 2005, published 2007).
